Measurements taken from article PMC7433010, “Exploration of multi‐target effects of 3‐benzoyl‐5‐hydroxychromen‐2‐one in Alzheimer’s disease cell and mouse models” (Aging Cell, 2020).

Assays:
pCREB (S133) = test: Western blot of pCREB (S133) in ∆K280 TauRD‐DsRed SH‐SY5Y cells; type: cell-based, human; conditions: 1 µM; induced untreated 78%, uninduced 100%
Experimental: To knock down CREB expression in ∆K280 TauRD-DsRed SH-SY5Y cells, lentiviral short hairpin RNA (shRNA) targeting CREB (TRCN0000226466), NRF2 (TRCN0000007558), and a negative control scrambled (TRC2.Void) were obtained from National RNAi Core Facility, IMB/GRC, Academia Sinica, Taipei, Taiwan. On day 1, cells were plated on 6-well plates (for protein analysis) or 24-well plates (for neurite outgrowth analysis) in the presence of retinoic acid as described. On the second day, the cells were infected with lentivirus (multiplicity of infection: 3) in medium with polybrene (8 µg/mL; Sigma-Aldrich). […] On day 9, the cells were collected for NRF2, CREB, pCREB, and cleaved CASP3 protein analysis or analyzed for neurite outgrowth as described.
Total proteins from ∆K280 TauRD-DsRed SH-SY5Y cells were obtained using a RIPA buffer containing 50 mM Tris-HCl (pH8.0), 150 mM NaCl, 2 mM EDTA (pH8.0), 50 mM NaF, 0.1% SDS, 0.5% sodium deoxycholate, 1% NP40, and a protease inhibitor cocktail (Sigma-Aldrich). […] Protein concentrations were determined using a protein assay kit (Bio-Rad, Hercules, CA, USA), with albumin as a standard. […] Subsequently, immune complexes were detected using a horseradish peroxidase-conjugated goat anti-mouse or goat anti-rabbit IgG antibody (1:5000; GeneTex, Irvive, CA, USA) and a chemiluminescent substrate (Millipore).

pAKT (S473) = test: Western blot of pAKT (S473) in ∆K280 TauRD‐DsRed SH‐SY5Y cells; type: cell-based, human; conditions: induced untreated 84%, uninduced 100%
Experimental: (§1) Total proteins from ∆K280 TauRD-DsRed SH-SY5Y cells were obtained using a RIPA buffer containing 50 mM Tris-HCl (pH8.0), 150 mM NaCl, 2 mM EDTA (pH8.0), 50 mM NaF, 0.1% SDS, 0.5% sodium deoxycholate, 1% NP40, and a protease inhibitor cocktail (Sigma-Aldrich). After sonication and sitting on ice for 20 min, the lysates were centrifuged at 14,000 × g for 30 min at 4°C. Protein concentrations were determined using a protein assay kit (Bio-Rad, Hercules, CA, USA), with albumin as a standard. Total proteins (20 µg) were electrophoresed on 10% or 12% SDS-polyacrylamide gel and transferred onto polyvinylidene difluoride (PVDF) membranes (Sigma-Aldrich) through reverse electrophoresis. […] Subsequently, immune complexes were detected using a horseradish peroxidase-conjugated goat anti-mouse or goat anti-rabbit IgG antibody (1:5000; GeneTex, Irvive, CA, USA) and a chemiluminescent substrate (Millipore).
(§2) Figure S4. ΔK280 TauRD-DsRed SH-SY5Y cells. […] On day 9, neurite outgrowth and caspase 3 activity were measured. In addition, expression of HSPB1, NRF2, and CREB pathways were assessed. (b) Relative AKT, pAKT, ERK, and pERK protein levels analyzed through immunoblotting. […]

AKT = test: Western blot of AKT in ∆K280 TauRD‐DsRed SH‐SY5Y cells; type: cell-based, human
Experimental: as §1, §2

NeuN = test: Immunohistochemistry of NeuN in hippocampus of STZ‐treated 3 × Tg‐AD mice; type: in vivo, mouse; conditions: – STZ 100%
Experimental: Mice harboring APPSwe, PS1M146V, and […] transgenes (3×Tg-AD) (Oddo et al., 2003) were purchased from the Jackson Laboratory (004807; Bar Harbor, ME, USA). Six-month-old male homozygous 3×Tg-AD mice were group housed at 20–25°C and 60% relative humidity under a daily 12-h light/12-h dark cycle, with assess to food and water ad libitum. Mice were randomly divided into 3 groups: – streptozocin (STZ), STZ, and STZ/LM-031 (n = 10 per group). STZ-induced hyperglycemia was used to accelerate the development of AD phenotype (Chen et al., 2014). Briefly, the mice were fasted for 12 h each day prior to intraperitoneal (i.p.) injection of STZ ([…]; Sigma-Aldrich) or vehicle (0.1 M sodium citrate pH4.5) for 4 times (days 2, 3, 9, and 10) (Chen et al., 2019). Mouse body weight was measured and blood glucose level was measured on days 1, 8, 15, 22, and 29 using a blood glucose meter (Bioland Technology, Taipei, Taiwan). LM-031 (40 mg/kg) or vehicle (DMSO:Cremophor EL:0.9% saline = 1:2:7) was intraperitoneally injected every day for 22 days from days 15 to 36. All animal procedures were ethically approved by the Institutional Animal Care and Use Committee of National Taiwan Normal University, Taipei, Taiwan (Permit Number: 103002) and were conducted in compliance with the ARRIVE (Animal Research: Reporting In Vivo Experiments) guidelines.
Mouse brains were removed, postfixed in 4% paraformaldehyde overnight, and cryopreserved in 30% sucrose solution at 4°C. Series of coronal brain sections (30 µm) were cut in a cryostat (Leica RM2125 RTS, Leica, Wetzlar, Germany). Heat-induced antigen retrieval for immunohistochemistry (IHC) was performed using antigen retrieval buffer (pH9.0, Thermo Fisher Scientific) to break methylene bridges and expose antigenic sites, allowing antibodies to bind. […] The sections were then washed and detected by using the UltraVision™ Quanto detection system containing horseradish peroxidase and chromogenic diaminobenzidine substrate (Thermo Fisher Scientific). […]

`O=C(c1ccccc1)c1cc2c(O)cccc2oc1=O` [LM‐031, 3‐benzoyl‐5‐hydroxychromen‐2‐one] was tested, and the “pCREB (S133) protein level” value (pCREB (S133)) was 124%, the “pAKT (S473) expression level” value (pAKT (S473)) was 113% and the AKT level (AKT) was “not notably affected”. The “NeuN level, CA1” value (NeuN; STZ 89%) was 96%, the “NeuN level, dentate gyrus (DG)” value (NeuN; STZ 90%) was 97% and the “NeuN level, CA3” value (NeuN; STZ 91%) was 95%.
